Laboratory results taken from patent publication US7553866B2, “Thiolactones” (Eisai Corporation of North America, priority 2003, dated 2009).
Entries after “also recorded” stand apart in the source; their conditions may differ. Marks after values point to notes of the source that are not given here. Peptide text beside a SMILES is read from it.

How the values were obtained:
[1] = test system: C57/BL mice; experiment: animal or person; type: in vivo; conditions: for ED50: Mus musculus, sc
Method: (§1) Male C57/BL mice (IMP, Lodz, Poland), 22-24 g of body weight were group-housed in the standard laboratory cages and kept in a temperature-controlled colony room (21±2° C.) with a 12-hour light/dark cycle (light on: 07:00, off: 19:00). Commercial food and tap water were available ad libitum. Each experimental group consisted of 7-28 mice per treatment. All mice were used only once.
(§2) The intensity of the heat stimulus was adjusted so that the baseline tail-flick latency was ˜3 seconds. […] Each response assessment consisted of two separate measurements taken at different portions of the tail (spaced by 1.5-2 cm) and separated by 15 seconds. The mean of these responses was used for subsequent comparisons.

[2] = test system: C57/BL mice; experiment: Acute effects in the tail-flick test (Experiment 2); type: in vivo
Method: as §1, §2
The N is given in brackets. Presented in FIG. 5 are mean±S.E.M. Area Under Curve (AUC) values calculated on the same data.

[3] = test system: BB/W rats; experiment: Retinal disorder (diabetic retinopathy) in BB/W rats: BM thickness and E/P ratio after 6 months of daily treatment; type: in vivo, rat; conditions: for BM THICKNESS (nm) ± SD: retinal capillaries
Method: Four groups of rats received daily insulin injections to maintain their glucose levels at about 350 mg/dl. Starting at the onset of hyperglycemia, NAALADase inhibitor 2-(3-sulfanylpropyl)-pentanedioic acid (Compound B) was administered daily for 6 months to one group of BB/W rats at a dose of 10 mg/kg and to a second group of BB/W rats at a dose of 30 mg/kg. A third group of BB/W rats and a fourth group of non-diabetic rats received daily vehicle treatment (50 mM Hepes buffered saline).
After 6 months of treatment with Compound B or vehicle treatment, the rats were sacrificed and their eyes were removed. From each rat, one eye was processed for elastase digest while the other eye was processed for transmission electron microscopy (TEM) and basement membrane (BM) thickness.
Retinal digests were prepared using elastase on retinas as described in Layer, N., Invest Ophthalmol Vis Sci (1993) 34:2097. Eyes were removed from recently killed BB/W rats (n=30) and age-matched transgenic controls (n=12). The retinas (n=12) were fixed at room temperature by immersing the whole eye (slit at limbus) in 4% (w/v) paraformaldehyde in 50 mmol/L Na—K phosphate buffer with 8% sucrose. The fixed retinas were rinsed in deionized water and were incubated for 3 minutes in a 37° C. agitating water bath in 40 units/mL elastase in Na—K phosphate buffer with 150 mmol/L NaCl and 5 mmol/L ethylenediamine tetraacetic acid (EDTA), pH 6.5. The tissues were washed overnight in 100 mmol/L Tris-HCL (pH 8.5) and then transferred to deionized water for removal of the loosened vitreous and digested neural elements by gentle agitation using the sides of closed forceps and the sides and ends of very fine brushes. After all loose tissues were removed, the retinas were incubated once more in fresh enzyme for 3 minutes and then subjected to a second overnight wash at room temperature in Tns-HCl buffer. On the third day, the retinas were again transferred to deionized water for additional removal of digested neural elements. The vascular network that was completely free of nonvascular elements was mounted flat by flotation in Ca^2+ and Mg^2+ free Dulbecco's Phosphate-Buffered Saline (PBS) on siliconized slides (#S1308, Oncor, Gaithersburg, Md.). After air drying in a dust free environment, the mounts of the retinal microvasculature were stained using periodic acid Schiff reaction and hematoxylin counterstaining, as described in Luna, L., ed. Manual of Histologic Staining Methods of the Armed Forces Institute of Pathology (1968) McGraw-Hill, New York, N.Y. The preparations were then examined by light microscopy and photographed.
The stained and intact retinal whole mounts were coded and counted, as described in Cuthbertson, R., Invest Ophthalmol Vis Sci. (1986) 27:1659-1664).
Ten fields at ×100 magnification were counted for endothelial and pericyte cells using previously described morphologic criteria (see Kuwabara, T., Arch Ophthalmol. (1960) 64:904-911). In every sample, at least 200 cells were counted from the mid zone of the retina. Mean values for endothelial cell/pericyte (E/P) ratios were initially calculated in 3 retinas from each of the 4 groups of rats.
Each eye was fixed in 4% glutaraldehyde and dissected free of sclera and choroids, then trimmed and postfixed in 1% osmium tetroxide. After dehydration and embedding, thin sections were stained with uranyl acetate and lead citrate. Initially, BM thickness of retinal capillaries from 3 non-diabetic rats receiving vehicle, 3 diabetic animals receiving 10 mg/kg Compound B, and 3 diabetic rats receiving 30 mg/kg Compound B were compared with 3 diabetic rats receiving a vehicle. At least 10 capillaries per eye from the inner nuclear and plexiform layers were photographed at a magnification of 10,000×. Exact magnification was determined for each set of negatives with a 28,800 line/inch calibration grid. Negatives were enlarged 3×. […]

[4] = test system: Brown Norway rats (Rattus norvegicus); experiment: Experimental rat glaucoma (unilateral IOP elevation), optic nerve fiber counting; type: in vivo; conditions: 10 mg/kg i.p. daily; for Fiber Number: glaucoma eye optic nerve; for Percent Difference (fiber number, glaucoma vs normal eye): positive value = fewer fibers in glaucoma eye
Method: (§3) All experiments complied with the Association for Research in Vision and Ophthalmology Statement for the Use of Animals in Ophthalmic and Vision Research. 82 male Brown Norway rats (Rattus norvegicus), each weighing approximately 250 gm, were treated using procedures approved by the Animal Care Committee of the Johns Hopkins University School of Medicine. The rats were housed with a 12 hour light/12 hour dark cycle and fed ad libitum.
Unilateral elevation of intraocular pressure (“IOP”) was produced in 56 rats by microinjection of hypertonic saline into episcleral veins, following procedures described in Morrison, J. et al., IOVS (March 1998) 39:526-531. Beginning on the day of IOP elevation, the rats were treated daily with intraperitoneal injections of either a vehicle (23 rats with 50 mM HEPES-buffered saline) or a NAALADase inhibitor (11 rats with 10 mg/kg of Compound A and 22 rats with 10 mg/kg of Compound B). 11 saline treated rats, 11 Compound A treated rats and 11 Compound B treated rats were sacrificed at 8 weeks, and the remaining rats at 12 weeks, after initial IOP elevation.
(§4) The rats were sacrificed by exsanguination under deep pentobarbital anesthesia. They were perfused through the heart with 2% paraformaldehyde/2% glutaraldehyde in 0.1 M phosphate buffer, pH 7.2, and the eyes with attached optic nerves were removed. Cross-sections of the optic nerves from both experimental (glaucoma or transection) and control eyes was removed 1.5 mm posterior to the globe, 1 mm in thickness, and post-fixed in 2% osmium tetroxide in buffer. These were processed into epoxy resin, sectioned at 1 micron and stained with toluidine blue.
The area of each optic nerve cross-section was measured by outlining its outer border at 10× magnification on an image analysis system (Universal Imaging Corp., Westchester, Pa.) with Synsys digital camera and Metamorph software. Three area measurements were taken and the mean value was determined. To measure the density and fiber diameter distributions, images were captured with a 100× phase contrast objective from 10 different areas of each nerve. These were edited to eliminate non-neural objects and the size of each axon internal to the myelin sheath (its minimum diameter) and the density of axons/square mm were calculated for each image and nerve. The mean density was multiplied by total nerve area to yield fiber number for each nerve. The total fiber number in glaucoma or transection nerves was compared to the normal, fellow eye of each rat to yield a percent loss value. The number of axons counted among the 10 images was approximately 20% of the 80-90,000 axons in normal rat nerves. The person measuring the number of axons was masked to the protocol conducted on the nerves. […]

[5] = test system: Brown Norway rats (Rattus norvegicus); experiment: Optic nerve transection in rats, optic nerve fiber counting; type: in vivo; conditions: for Fiber Number / Percent Difference (fiber number, transected vs normal eye): 10 mg/kg i.p. daily
Method: as §3
The optic nerve was transected unilaterally in 26 rats under intraperitoneal pentobarbital anesthesia. The conjunctiva was opened with scissors and the optic nerve was exposed by traction on extraocular muscles. The transection was performed with microscissors 5 mm posterior to the globe, with specific attention to avoidance of injury to major ocular blood vessels. Immediately after transection, the retina was examined ophthalmoscopically to assure that the retinal arterial blood supply was not disrupted. The conjunctiva was closed with absorbable suture and the eye dressed with antibiotic ointment. Beginning on the day of transection, the rats were treated daily with intraperitoneal injections of either a vehicle (9 rats with 50 mM HEPES-buffered saline) or a NAALADase inhibitor (8 rats with 10 mg/kg of Compound A and 9 rats with 10 mg/kg of Compound B). 5 saline treated rats, 3 Compound A treated rats and 4 Compound B treated rats were sacrificed at 2 weeks, and the remaining rats at 4 weeks, after transection.
as §4
The area of each optic nerve cross-section was measured by outlining its outer border at 10× magnification on an image analysis system (Universal Imaging Corp., Westchester, Pa.) with Synsys digital camera and Metamorph software. Three area measurements were taken and the mean value was determined. To measure the density and fiber diameter distributions, images were captured with a 100× phase contrast objective from 10 different areas of each nerve. These were edited to eliminate non-neural objects and the size of each axon internal to the myelin sheath (its minimum diameter) and the density of axons/square mm were calculated for each image and nerve. The mean density was multiplied by total nerve area to yield fiber number for each nerve. The total fiber number in glaucoma or transection nerves was compared to the normal, fellow eye of each rat to yield a percent loss value. The number of axons counted among the 10 images was approximately 20% of the 80-90,000 axons in normal rat nerves. The person measuring the number of axons was masked to the protocol conducted on the nerves.
Percent Difference=mean percent difference in fiber number between glaucoma and normal eye in each rat (positive value indicates fewer fibers in the glaucoma eye).

[6] = test system: NAALADase; conditions: NAAG as substrate of NAALADase; cited from earlier work
[7] = diabetic BB/W rats, 10 mg/kg daily for 6 months, 10 mg/kg
[8] = diabetic BB/W rats, 10 mg/kg daily for 6 months, listed as NAALADASE INHIBITOR, 10 mg/kg
[9] = diabetic BB/W rats, 30 mg/kg daily for 6 months, 30 mg/kg
[10] = diabetic BB/W rats, 30 mg/kg daily for 6 months, listed as NAAALADASE INHIBITOR, 30 mg/kg
[11] = high dose 30 mg/kg, vs diabetic vehicle
[12] = low dose 10 mg/kg, vs diabetic vehicle
[13] = 2 weeks survival after transection
[14] = 4 weeks survival after transection

## O=C(O)CCC(CP(=O)(O)O)C(=O)O (stereo not drawn) [Compound 2-PMPA, 2-(phosphonomethyl)pentanedioic acid]
[1]; 50 or 100 mg/kg of 2-PMPA prior to each dose of morphine
  effect on development of morphine tolerance: attenuated the development of morphine tolerance
[2]; 100 mg/kg 2-PMPA i.p. 30 min before 1.5 or 3 mg/kg morphine s.c.
  effect on antinociceptive effects of morphine: did not affect antinociceptive effects; also recorded: did not differ
[2]; 100 mg/kg of 2-PMPA i.p. + placebo
  tail-flick responses (AUC) compared to placebo+placebo treatment: did not affect tail-flick responses; also recorded: did not differ from placebo+placebo treatment

## O=C(O)CCC(CCCS)C(=O)O (stereo not drawn) [Compound B, 2-(3-sulfanylpropyl)pentanedioic acid]
[3]; [7]
  BM THICKNESS (nm) ± SD: 82.3±4.07 nm
  E/P RATIO (endothelial cell/pericyte): 2.5±0.5
[3]; [8]
  BM THICKNESS (nm) ± SD: 82.3 ± 4.07 nm
  E/P RATIO (endothelial cell/pericyte): 2.5 ± 0.5
[3]; [9]
  BM THICKNESS (nm) ± SD: 71.7±4.07 nm
  E/P RATIO (endothelial cell/pericyte): 2.0±0.9
[3]; [10]
  BM THICKNESS (nm) ± SD: 71.7 ± 4.07 nm
  E/P RATIO (endothelial cell/pericyte): 2.0 ± 0.4
[3]; diabetic BB/W rats, 6 months of treatment
  effect on body weight: no effect
[3]; [11]
  reduction in BM thickness: 29.0%
  reduction of endothelial cell to pericyte ratios: 33.0%
[3]; [12]
  decrease in BM thickness: 18.5%
  reduction of endothelial cell to pericyte ratios: 16.7%
[4]; 8 week group
  Fiber Number: 80785 ± 2121**
  Percent Difference (fiber number, glaucoma vs normal eye): −0.82 ± 2.97%
[4]; 12 week group
  Fiber Number: 90504 ± 1718
  Percent Difference (fiber number, glaucoma vs normal eye): −3.21 ± 2.86%
[5]; 2 weeks after transection
  remaining axons relative to saline-treated rats: twice
[5]; [13]
  Fiber Number: 19,550 ± 11,383
  Percent Difference (fiber number, transected vs normal eye): 75.3 ± 14.8%
[5]; [14]
  Fiber Number: 5,162 ± 5,017
  Percent Difference (fiber number, transected vs normal eye): 93.4 ± 6.2%

## CC12CC3CC(C)(C1)CC(N)(C3)C2 [Memantine, memantine]
[1]; mouse, in vivo
  effect on development of morphine tolerance: attenuated the development of morphine tolerance; also recorded: produced an inhibition of morphine tolerance

## CN1CC[C@]23c4c5ccc(O)c4O[C@H]2[C@@H](O)C=C[C@H]3[C@H]1C5 [Morphine, morphine]
[1]; 24 h, read-out: Test #1 ED50 (morphine antinociceptive potency)
  ED50: 1.49 ± 0.26 mg/kg
[1]; read-out: Test #2 ED50 (morphine antinociceptive potency)
  ED50: 8.85 ± 2.22 mg/kg
[2]; Mus musculus, sc, read-out: antinociceptive ED50 dose
  ED50: 3 mg/kg

## CC(=O)N[C@@H](CC(=O)O)C(=O)N[C@@H](CCC(=O)O)C(=O)O [NAAG, N-acetyl-aspartyl-glutamate] (Ac-Asp-Glu-OH)
[6]
  Km: 0.54 µM
